Reference: ChEMBL document CHEMBL3885881, “DrugMatrix”

Species on record: Rattus norvegicus
Experiment: DrugMatrix - Regimen: Daily Repeat
Assay type: toxicity, organism-based, Sprague-Dawley
Set-up: regimen Daily Repeat, gender Male, age 6-8 weeks
Details: in vivo, po, route oral GAVAGE, vehicle 100 % WATER; for ABSOLUTE BASOPHIL / ABSOLUTE EOSINOPHIL / ABSOLUTE LYMPHOCYTE / ABSOLUTE MONOCYTE / ABSOLUTE SEGMENTED NEUTROPHIL / BASOPHIL / EOSINOPHIL / ERYTHROCYTE COUNT / HEMATOCRIT / HEMOGLOBIN / LEUKOCYTE COUNT / LYMPHOCYTE / MEAN CORPUSCULAR HEMOGLOBIN / MEAN CORPUSCULAR HEMOGLOBIN CONCENTRATION / MEAN CORPUSCULAR VOLUME / MONOCYTE / NEUTROPHIL / NUCLEATED RED BLOOD CELLS / PLATELET COUNT: tissue Blood; for ALANINE AMINOTRANSFERASE / ALBUMIN / ALKALINE PHOSPHATASE / ASPARTATE AMINOTRANSFERASE / BLOOD UREA NITROGEN / CARBON DIOXIDE / CHLORIDE / CHOLESTEROL / CREATINE PHOSPHOKINASE / CREATININE / GLUCOSE / LACTATE DEHYDROGENASE / LIPASE / PHOSPHORUS / POTASSIUM / SODIUM / TOTAL BILIRUBIN / TOTAL PROTEIN / URIC ACID: tissue Plasma
[1] = 0 mg/kg, 72 h, dose level Control, time 3 day
[2] = 0 mg/kg, 120 h, dose level Control, time 5 day
[3] = 5 mg/kg, 72 h, dose level Low, time 3 day

C[N+](C)(C)CCOC(N)=O.[Cl-] [CARBACHOL]
ABSOLUTE BASOPHIL [1]: 0 CELLS/uL | ABSOLUTE EOSINOPHIL [1]: 0 CELLS/uL | ABSOLUTE LYMPHOCYTE [1]: 8482.5 CELLS/uL | ABSOLUTE MONOCYTE [1]: 63.83 CELLS/uL | ABSOLUTE SEGMENTED NEUTROPHIL [1]: 887 CELLS/uL | BASOPHIL [1]: 0% | EOSINOPHIL [1]: 0% | ERYTHROCYTE COUNT [1]: 5.49 x10E6/uL | HEMATOCRIT [1]: 34.5% | HEMOGLOBIN [1]: 13.33 G/DL | LEUKOCYTE COUNT [1]: 9.43 x10E3/uL | LYMPHOCYTE [1]: 90.17% | MEAN CORPUSCULAR HEMOGLOBIN [1]: 24.3 pg | MEAN CORPUSCULAR HEMOGLOBIN CONCENTRATION [1]: 38.63 G/DL | MEAN CORPUSCULAR VOLUME [1]: 62.88 fL | MONOCYTE [1]: 0.67% | NEUTROPHIL [1]: 9.17% | NUCLEATED RED BLOOD CELLS [1]: 0.67 /100WBC | PLATELET COUNT [1]: 1022.83 x10E3/uL | ALANINE AMINOTRANSFERASE [1]: 50.5 u/L | ALBUMIN [1]: 4.08 G/DL | ALKALINE PHOSPHATASE [1]: 368.33 u/L | ASPARTATE AMINOTRANSFERASE [1]: 87.5 u/L | BLOOD UREA NITROGEN [1]: 12.83 mg/dL | CARBON DIOXIDE [1]: 32.83 mmol/L | CHLORIDE [1]: 99.67 MEQ/L | CHOLESTEROL [1]: 79.67 mg/dL | CREATINE PHOSPHOKINASE [1]: 585 u/L | CREATININE [1]: 0.22 mg/dL | GLUCOSE [1]: 135.67 mg/dL | LACTATE DEHYDROGENASE [1]: 171 u/L | LIPASE [1]: 9.5 u/L | PHOSPHORUS [1]: 11.18 mg/dL | POTASSIUM [1]: 6.25 MEQ/L | SODIUM [1]: 144.87 MEQ/L | TOTAL BILIRUBIN [1]: 0.2 mg/dL | TOTAL PROTEIN [1]: 6.08 G/DL | URIC ACID [1]: 0.65 mg/dL | ABSOLUTE BASOPHIL [2]: 0 CELLS/uL | ABSOLUTE EOSINOPHIL [2]: 14.5 CELLS/uL | ABSOLUTE LYMPHOCYTE [2]: 7596.17 CELLS/uL | ABSOLUTE MONOCYTE [2]: 69.67 CELLS/uL | ABSOLUTE SEGMENTED NEUTROPHIL [2]: 503 CELLS/uL | BASOPHIL [2]: 0% | EOSINOPHIL [2]: 0.17% | ERYTHROCYTE COUNT [2]: 5.49 x10E6/uL | HEMATOCRIT [2]: 34.72% | HEMOGLOBIN [2]: 13.47 G/DL | LEUKOCYTE COUNT [2]: 8.18 x10E3/uL | LYMPHOCYTE [2]: 92.17% | MEAN CORPUSCULAR HEMOGLOBIN [2]: 24.57 pg | MEAN CORPUSCULAR HEMOGLOBIN CONCENTRATION [2]: 38.82 G/DL | MEAN CORPUSCULAR VOLUME [2]: 63.3 fL | MONOCYTE [2]: 1% | NEUTROPHIL [2]: 6.67% | NUCLEATED RED BLOOD CELLS [2]: 0 /100WBC | PLATELET COUNT [2]: 1141 x10E3/uL | ALANINE AMINOTRANSFERASE [2]: 48.33 u/L | ALBUMIN [2]: 4.07 G/DL | ALKALINE PHOSPHATASE [2]: 395.67 u/L | ASPARTATE AMINOTRANSFERASE [2]: 85.67 u/L | BLOOD UREA NITROGEN [2]: 15.83 mg/dL | CARBON DIOXIDE [2]: 31.33 mmol/L | CHLORIDE [2]: 100.83 MEQ/L | CHOLESTEROL [2]: 62.33 mg/dL | CREATINE PHOSPHOKINASE [2]: 248.33 u/L | CREATININE [2]: 0.2 mg/dL | GLUCOSE [2]: 135.67 mg/dL | LACTATE DEHYDROGENASE [2]: 141.33 u/L | LIPASE [2]: 9.5 u/L | PHOSPHORUS [2]: 10.73 mg/dL | POTASSIUM [2]: 6.07 MEQ/L | SODIUM [2]: 145.35 MEQ/L | TOTAL BILIRUBIN [2]: 0.22 mg/dL | TOTAL PROTEIN [2]: 6.12 G/DL | URIC ACID [2]: 0.63 mg/dL | ABSOLUTE BASOPHIL [3]: 0 CELLS/uL | ABSOLUTE EOSINOPHIL [3]: 50.33 CELLS/uL | ABSOLUTE LYMPHOCYTE [3]: 10617 CELLS/uL | ABSOLUTE MONOCYTE [3]: 63 CELLS/uL | ABSOLUTE SEGMENTED NEUTROPHIL [3]: 603 CELLS/uL | BASOPHIL [3]: 0% | EOSINOPHIL [3]: 0.33% | ERYTHROCYTE COUNT [3]: 5.09 x10E6/uL | HEMATOCRIT [3]: 32.27% | HEMOGLOBIN [3]: 12.67 G/DL | LEUKOCYTE COUNT [3]: 11.33 x10E3/uL | LYMPHOCYTE [3]: 93.67% | MEAN CORPUSCULAR HEMOGLOBIN [3]: 24.9 pg | MEAN CORPUSCULAR HEMOGLOBIN CONCENTRATION [3]: 39.3 G/DL | MEAN CORPUSCULAR VOLUME [3]: 63.33 fL | MONOCYTE [3]: 0.67% | NEUTROPHIL [3]: 5.33% | NUCLEATED RED BLOOD CELLS [3]: 0 /100WBC | PLATELET COUNT [3]: 1098.33 x10E3/uL | ALANINE AMINOTRANSFERASE [3]: 65.67 u/L | ALBUMIN [3]: 3.93 G/DL | ALKALINE PHOSPHATASE [3]: 297.33 u/L | ASPARTATE AMINOTRANSFERASE [3]: 89.67 u/L | BLOOD UREA NITROGEN [3]: 12 mg/dL | CARBON DIOXIDE [3]: 33.67 mmol/L | CHLORIDE [3]: 98.33 MEQ/L | CHOLESTEROL [3]: 74.67 mg/dL | CREATINE PHOSPHOKINASE [3]: 369.33 u/L | CREATININE [3]: 0.19 mg/dL | GLUCOSE [3]: 134 mg/dL | LACTATE DEHYDROGENASE [3]: 123 u/L | LIPASE [3]: 11 u/L | PHOSPHORUS [3]: 11.1 mg/dL | POTASSIUM [3]: 5.93 MEQ/L | SODIUM [3]: 144.17 MEQ/L | TOTAL BILIRUBIN [3]: 0.13 mg/dL | TOTAL PROTEIN [3]: 5.83 G/DL | URIC ACID [3]: 0.53 mg/dL
